Test results reported in patent US20090011418A1, “FUNCTIONAL TOLL-LIKE RECEPTORS (TLR) ON MELANOCYTES AND MELANOMA CELLS AND USES THEREOF” (JOHN WAYNE CANCER INSTITUTE, priority 2007, published 2009).

Columns and labels:
[1] = tested on: PBLs; test: FITC-LPS fluorescence microscopy staining; assay type: binding, human; details: 20 μg/ml FITC-LPS, 20 min, fixed cells
Method: Cells were fixed with 4% paraformaldehyde in PBS for 10 min, and then incubated inside a 37° C. humidified atmosphere containing 5% CO2 for 20 min in RPMI 1640 medium supplemented with 10% FBS and 20 μg/ml of fluorescein isothiocyanate (FITC)-LPS (Sigma, St Louis, Mo.). After washing, cells were visualized using an Olympus IX70 fluorescence microscope. The images were recorded using an Olympus C-3030 Zoom Camedia Digital Camera. […] The inventors employed FITC-LPS to assess binding to TLR4 on the cell surface of melanoma lines. PIC-FITC and zymosan-FITC were not available for assessment. […] The FITC-LPS analysis confirmed TLR4 receptor staining on the melanoma cell surface.

[2] = target: T1, TLR4 on the cell surface of melanoma lines (Homo sapiens, UniProt O00206+Q9Y6Y9); test: FITC-LPS fluorescence microscopy binding; details: 20 μg/ml FITC-LPS, 20 min, fixed cells
T1 construct: endogenous in cells; host or cells: human melanoma cell lines (fixed with paraformaldehyde); PBLs as comparison
Method: Cells were fixed with 4% paraformaldehyde in PBS for 10 min, and then incubated inside a 37° C. humidified atmosphere containing 5% CO2 for 20 min in RPMI 1640 medium supplemented with 10% FBS and 20 μg/ml of fluorescein isothiocyanate (FITC)-LPS (Sigma, St Louis, Mo.). After washing, cells were visualized using an Olympus IX70 fluorescence microscope. The images were recorded using an Olympus C-3030 Zoom Camedia Digital Camera.
The inventors employed FITC-LPS to assess binding to TLR4 on the cell surface of melanoma lines. PIC-FITC and zymosan-FITC were not available for assessment. […] The FITC-LPS analysis confirmed TLR4 receptor staining on the melanoma cell surface.

T1 sequence (O00206 24-839): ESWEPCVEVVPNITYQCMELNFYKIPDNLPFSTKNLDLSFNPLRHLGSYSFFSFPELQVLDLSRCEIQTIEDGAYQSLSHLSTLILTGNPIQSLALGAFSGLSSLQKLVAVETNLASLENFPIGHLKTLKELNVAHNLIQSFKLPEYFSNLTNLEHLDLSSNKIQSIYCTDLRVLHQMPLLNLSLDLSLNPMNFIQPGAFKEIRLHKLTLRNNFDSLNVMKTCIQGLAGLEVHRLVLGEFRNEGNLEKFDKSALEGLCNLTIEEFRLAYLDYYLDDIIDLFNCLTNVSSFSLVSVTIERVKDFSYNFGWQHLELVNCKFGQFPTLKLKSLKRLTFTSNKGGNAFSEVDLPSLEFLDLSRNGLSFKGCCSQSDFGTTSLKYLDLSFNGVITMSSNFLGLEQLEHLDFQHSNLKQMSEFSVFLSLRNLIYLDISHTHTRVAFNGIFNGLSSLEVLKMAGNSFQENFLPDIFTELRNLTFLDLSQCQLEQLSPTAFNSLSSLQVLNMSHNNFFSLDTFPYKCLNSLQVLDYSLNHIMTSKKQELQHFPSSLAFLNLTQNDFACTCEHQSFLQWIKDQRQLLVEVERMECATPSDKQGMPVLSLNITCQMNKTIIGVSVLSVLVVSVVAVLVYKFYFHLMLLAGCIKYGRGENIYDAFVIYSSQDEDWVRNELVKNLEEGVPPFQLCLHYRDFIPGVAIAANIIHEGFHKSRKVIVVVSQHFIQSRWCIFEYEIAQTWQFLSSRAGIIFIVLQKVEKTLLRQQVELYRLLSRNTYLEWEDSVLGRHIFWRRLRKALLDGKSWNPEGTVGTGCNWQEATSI
T1 sequence (Q9Y6Y9 17-160 limits assumed): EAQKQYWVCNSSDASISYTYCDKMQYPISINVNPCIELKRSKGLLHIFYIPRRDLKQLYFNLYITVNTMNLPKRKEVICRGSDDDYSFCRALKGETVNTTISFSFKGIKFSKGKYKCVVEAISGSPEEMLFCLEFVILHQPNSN

## fluorescein isothiocyanate (FITC)-LPS [FITC-LPS]
[1]
  staining intensity of PBLs compared with melanoma cells: stained with more intensity
[2]
  binding to melanoma cell surface (staining): direct binding of LPS to melanoma cells
